Assay results from patent US7582649B2, “Hydroxy alkyl substituted 1,3,8-triazaspiro[4.5]decan-4-one derivatives useful for the treatment of ORL-1 receptor mediated disorders” (Janssen Pharmaceutica, NV, priority 2002, dated 2009).
Read-outs that look alike come from different tables or passages of the source.

What was measured:
rats = settings: rat, in vivo, ip
kappa opioid receptor = kappa opioid receptor (Homo sapiens, UniProt P41145); test: Filtration binding assay: kappa opioid receptor
delta opioid receptor = delta opioid receptor (Homo sapiens, UniProt P41143); test: Filtration binding assay: delta opioid receptor
mu opioid receptor = mu opioid receptor (Homo sapiens, UniProt P35372); test: Filtration binding assay: mu opioid receptor
Long-Evans Hooded rats [1] = settings: rat, in vivo; for Total Entries (EPM), % Change / Total Entries (EPM), Mean / reduction of total number of entries into various zones of the maze: male, Long-Evans Hooded; for Total Entries (EPM), % Change / Total Entries (EPM), Mean / reduction of total number of entries into various zones of the maze / % Open Arm Entries (EPM), % Change / % Open Arm Entries (EPM), Mean / % Open Arm Time (EPM), % Change / % Open Arm Time (EPM), Mean / percent open arm entries, increase as compared to vehicle: po
Long-Evans Hooded rats [2] = settings: male, rat, in vivo, po
D2 receptor = D2 receptor (Homo sapiens, UniProt P14416); test: Filtration binding assay, dopamine (Spiperone-I125)
[3] = D2 receptor, Spiperone-I125, read-out: IC50

Chain of delta opioid receptor (P41143 whole entry): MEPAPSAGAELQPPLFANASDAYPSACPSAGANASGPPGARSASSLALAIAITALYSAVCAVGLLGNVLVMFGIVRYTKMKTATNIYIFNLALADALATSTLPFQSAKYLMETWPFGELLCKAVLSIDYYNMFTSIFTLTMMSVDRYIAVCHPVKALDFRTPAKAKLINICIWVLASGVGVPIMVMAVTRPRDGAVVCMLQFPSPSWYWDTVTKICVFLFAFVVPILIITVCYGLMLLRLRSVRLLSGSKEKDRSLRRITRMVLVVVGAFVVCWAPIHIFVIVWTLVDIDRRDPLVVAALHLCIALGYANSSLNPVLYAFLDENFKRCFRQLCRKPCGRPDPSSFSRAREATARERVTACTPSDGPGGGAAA
Chain of D2 receptor (P14416 whole entry): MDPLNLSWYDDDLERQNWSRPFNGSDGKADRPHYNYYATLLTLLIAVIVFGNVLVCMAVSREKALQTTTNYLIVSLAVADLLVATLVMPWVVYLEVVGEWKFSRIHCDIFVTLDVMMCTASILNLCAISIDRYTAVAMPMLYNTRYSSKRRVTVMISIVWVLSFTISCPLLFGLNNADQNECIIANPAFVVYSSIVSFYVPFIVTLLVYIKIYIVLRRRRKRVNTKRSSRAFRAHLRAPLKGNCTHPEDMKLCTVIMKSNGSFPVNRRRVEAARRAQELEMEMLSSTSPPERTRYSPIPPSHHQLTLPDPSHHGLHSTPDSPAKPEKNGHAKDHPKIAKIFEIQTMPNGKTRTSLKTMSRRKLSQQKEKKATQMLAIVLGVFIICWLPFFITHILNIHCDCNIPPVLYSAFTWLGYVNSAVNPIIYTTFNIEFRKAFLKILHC
Chain of kappa opioid receptor (P41145 whole entry): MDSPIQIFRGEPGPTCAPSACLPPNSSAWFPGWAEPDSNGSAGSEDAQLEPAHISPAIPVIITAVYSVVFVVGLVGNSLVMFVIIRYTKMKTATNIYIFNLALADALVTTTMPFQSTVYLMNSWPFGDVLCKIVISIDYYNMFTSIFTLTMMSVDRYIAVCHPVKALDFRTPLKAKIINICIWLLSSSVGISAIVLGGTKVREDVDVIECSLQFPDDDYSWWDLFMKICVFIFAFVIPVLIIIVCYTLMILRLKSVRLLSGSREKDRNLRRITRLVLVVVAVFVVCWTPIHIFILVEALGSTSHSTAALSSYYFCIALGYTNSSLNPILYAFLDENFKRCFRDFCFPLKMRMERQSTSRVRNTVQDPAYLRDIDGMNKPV
Chain of mu opioid receptor (P35372 whole entry): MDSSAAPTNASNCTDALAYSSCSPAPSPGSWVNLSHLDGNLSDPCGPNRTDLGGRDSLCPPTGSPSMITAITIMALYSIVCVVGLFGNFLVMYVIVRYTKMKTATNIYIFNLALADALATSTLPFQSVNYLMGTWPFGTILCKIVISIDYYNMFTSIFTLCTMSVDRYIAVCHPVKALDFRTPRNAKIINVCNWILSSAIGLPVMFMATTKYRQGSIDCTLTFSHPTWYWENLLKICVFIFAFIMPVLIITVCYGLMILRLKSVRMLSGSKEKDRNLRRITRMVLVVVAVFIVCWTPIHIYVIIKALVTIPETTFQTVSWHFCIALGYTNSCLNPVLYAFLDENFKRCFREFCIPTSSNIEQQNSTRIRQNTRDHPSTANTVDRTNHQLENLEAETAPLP

CCCCN(Cc1ccccc1)C[C@H](O)CN1CN(c2ccc(F)cc2)C2(CCN(CC3CCCCCCC3)CC2)C1=O [Compound #64, 3-[3-(Benzyl-butyl-amino)-2-(S)-hydroxy-propyl]-8-cyclooctylmethyl-1-(4-fluoro-phenyl)-1,3,8-triaza-spiro[4.5]decan-4-one]
% Increase Mean No. of Shocks (rats; 0.3 mg/kg): −10% | % Increase Mean No. of Shocks (rats; 1 mg/kg): 25% | % Increase Mean No. of Shocks (rats; 3 mg/kg): 96% | % Increase Mean No. of Shocks (rats; 10 mg/kg): 150% | % Increase Mean No. of Shocks (rats; 30 mg/kg): −26%

NC[C@H](O)CN1CN(c2ccc(F)cc2)C2(CCN([C@@H]3Cc4cccc5cccc3c45)CC2)C1=O [Compound #424, (R)-8-Acenaphthen-1-yl-3-(3-amino-2-hydroxy-(S)-propyl)-1-(4-fluoro-phenyl)-1,3,8-triaza-spiro[4.5]decan-4-one]
IC50 (kappa opioid receptor): 600 nM | IC50 (delta opioid receptor): 280 nM | IC50 (mu opioid receptor): 280 nM | Total Entries (EPM), % Change (Long-Evans Hooded rats [1]; 0.3 mg/kg): −6.9% | Total Entries (EPM), Mean (Long-Evans Hooded rats [1]; 0.3 mg/kg): 90.0 | Total Entries (EPM), % Change (Long-Evans Hooded rats [1]; 1 mg/kg): −5.3% | Total Entries (EPM), Mean (Long-Evans Hooded rats [1]; 1 mg/kg): 91.5 | reduction of total number of entries into various zones of the maze (Long-Evans Hooded rats [1]; 1 mg/kg): 18.6% | Total Entries (EPM), % Change (Long-Evans Hooded rats [1]; 3 mg/kg): −0.4% | Total Entries (EPM), Mean (Long-Evans Hooded rats [1]; 3 mg/kg): 96.3 | reduction of total number of entries into various zones of the maze (Long-Evans Hooded rats [1]; 3 mg/kg): 60.3% | Total Entries (EPM), % Change (Long-Evans Hooded rats [1]; 10 mg/kg): 6.1% | Total Entries (EPM), Mean (Long-Evans Hooded rats [1]; 10 mg/kg): 102.6 | reduction of total number of entries into various zones of the maze (Long-Evans Hooded rats [1]; 10 mg/kg): 76.7% | percent open arm entries (Long-Evans Hooded rats [1]): significant increases | percent open arm time (Long-Evans Hooded rats [1]): significant increases | percent open arm time, increase as compared to vehicle (Long-Evans Hooded rats [1]): 97.5% | % Open Arm Entries (EPM), % Change (Long-Evans Hooded rats [1]; 0.3 mg/kg): 33.8% | % Open Arm Entries (EPM), Mean (Long-Evans Hooded rats [1]; 0.3 mg/kg): 7.33% | % Open Arm Time (EPM), % Change (Long-Evans Hooded rats [1]; 0.3 mg/kg): 70.1% | % Open Arm Time (EPM), Mean (Long-Evans Hooded rats [1]; 0.3 mg/kg): 9.80% | % Open Arm Entries (EPM), % Change (Long-Evans Hooded rats [1]; 1 mg/kg): 36.7% | % Open Arm Entries (EPM), Mean (Long-Evans Hooded rats [1]; 1 mg/kg): 7.49% | % Open Arm Time (EPM), % Change (Long-Evans Hooded rats [1]; 1 mg/kg): 69.4% | % Open Arm Time (EPM), Mean (Long-Evans Hooded rats [1]; 1 mg/kg): 9.76% | % Open Arm Entries (EPM), % Change (Long-Evans Hooded rats [1]; 3 mg/kg): 44.5% | % Open Arm Entries (EPM), Mean (Long-Evans Hooded rats [1]; 3 mg/kg): 7.92% | % Open Arm Time (EPM), % Change (Long-Evans Hooded rats [1]; 3 mg/kg): 75.3% | % Open Arm Time (EPM), Mean (Long-Evans Hooded rats [1]; 3 mg/kg): 10.1% | percent open arm entries, increase as compared to vehicle (Long-Evans Hooded rats [1]; 3 mg/kg): 205% | % Open Arm Entries (EPM), % Change (Long-Evans Hooded rats [1]; 10 mg/kg): 36.7% | % Open Arm Entries (EPM), Mean (Long-Evans Hooded rats [1]; 10 mg/kg): 7.49% | % Open Arm Time (EPM), % Change (Long-Evans Hooded rats [1]; 10 mg/kg): 30.9% | % Open Arm Time (EPM), Mean (Long-Evans Hooded rats [1]; 10 mg/kg): 7.54% | percent open arm entries, increase as compared to vehicle (Long-Evans Hooded rats [1]; 10 mg/kg): 237% | Horizontal Activity (SMA), % Change (Long-Evans Hooded rats [2]; 0.3 mg/kg): 5.3% | Horizontal Activity (SMA), Mean (Long-Evans Hooded rats [2]; 0.3 mg/kg): 3033 | Vertical Movement (SMA), % Change (Long-Evans Hooded rats [2]; 0.3 mg/kg): 11.2% | Vertical Movement (SMA), Mean (Long-Evans Hooded rats [2]; 0.3 mg/kg): 54.6 | Horizontal Activity (SMA), % Change (Long-Evans Hooded rats [2]; 1 mg/kg): −4.5% | Horizontal Activity (SMA), Mean (Long-Evans Hooded rats [2]; 1 mg/kg): 2752 | Vertical Movement (SMA), % Change (Long-Evans Hooded rats [2]; 1 mg/kg): 2.4% | Vertical Movement (SMA), Mean (Long-Evans Hooded rats [2]; 1 mg/kg): 50.3 | reduction in number of vertical movements (rearing behavior) (Long-Evans Hooded rats [2]; 1 mg/kg): 17.8% | Horizontal Activity (SMA), % Change (Long-Evans Hooded rats [2]; 3 mg/kg): 14.5% | Horizontal Activity (SMA), Mean (Long-Evans Hooded rats [2]; 3 mg/kg): 3300 | Vertical Movement (SMA), % Change (Long-Evans Hooded rats [2]; 3 mg/kg): 15.7% | Vertical Movement (SMA), Mean (Long-Evans Hooded rats [2]; 3 mg/kg): 56.8 | reduction in horizontal activity (Long-Evans Hooded rats [2]; 3 mg/kg): 55% | reduction in number of vertical movements (rearing behavior) (Long-Evans Hooded rats [2]; 3 mg/kg): 73.4% | Horizontal Activity (SMA), % Change (Long-Evans Hooded rats [2]; 10 mg/kg): −10.2% | Horizontal Activity (SMA), Mean (Long-Evans Hooded rats [2]; 10 mg/kg): 2588 | Vertical Movement (SMA), % Change (Long-Evans Hooded rats [2]; 10 mg/kg): −10.1% | Vertical Movement (SMA), Mean (Long-Evans Hooded rats [2]; 10 mg/kg): 44.2 | reduction in horizontal activity (Long-Evans Hooded rats [2]; 10 mg/kg): 83.7% | reduction in number of vertical movements (rearing behavior) (Long-Evans Hooded rats [2]; 10 mg/kg): 93.9% | IC50 (D2 receptor; [3]): 278 nM

O=C1N(C[C@@H](O)CNc2ccncc2)CN(c2ccc(F)cc2)C12CCN(C1Cc3cccc4cccc1c34)CC2 (stereo partly shown) [Compound #327, 8-Acenaphthen-1-yl-1-(4-fluoro-phenyl)-3-[2-hydroxy-3-(pyridin-4-ylamino)-propyl]-1,3,8-triaza-spiro[4.5]decan-4-one]
IC50 (D2 receptor): 387 nM

CCN(C)C[C@H](O)CN1CN(c2ccc(F)cc2)C2(CCN(Cc3cccc4cccc(C)c34)CC2)C1=O [Compound #440, 3-[3-(Ethyl-methyl-amino)-2-hydroxy-(S)-propyl]-1-(4-fluoro-phenyl)-8-(8-methyl-naphthalen-1-ylmethyl)-1,3,8-triaza-spiro[4.5]decan-4-one]
IC50 (kappa opioid receptor): > 10000 nM | IC50 (mu opioid receptor): > 10000 nM | IC50 (D2 receptor; [3]): 1520 nM

CCN(C)C[C@H](O)CN1CN(c2ccc(F)cc2)C2(CCN([C@H]3Cc4cccc5cccc3c45)CC2)C1=O [compound 433]
IC50 (D2 receptor): 3520 nM

COc1ccc(CCN(C)C[C@@H](O)CN2CN(c3ccc(F)cc3)C3(CCN([C@@H]4Cc5cccc6cccc4c56)CC3)C2=O)cc1OC [Compound #339, (R)-8-Acenaphthen-1-yl-3-(3-{[2-(3,4-dimethoxy-phenyl)-ethyl]-methyl-amino}-(R)-2-hydroxy-propyl)-1-(4-fluoro-phenyl)-1,3,8-triaza-spiro[4.5]decan-4-one]
IC50 (kappa opioid receptor): 180 nM | IC50 (delta opioid receptor): > 10000 nM | IC50 (mu opioid receptor): 210 nM

NC[C@@H](O)CN1CN(c2ccc(F)cc2)C2(CCN(CC3CCCCCCC3)CC2)C1=O [Compound #620, 3-(3-Amino-2-(R)-hydroxy-propyl)-8-cyclooctylmethyl-1-(4-fluoro-phenyl)-1,3,8-triaza-spiro[4.5]decan-4-one]
Ki (kappa opioid receptor): 190 nM | Ki (delta opioid receptor): > 5000 nM | Ki (mu opioid receptor): 280 nM

O=C1N(C[C@H]2CO2)CN(c2ccc(F)cc2)C12CCN(Cc1ccc3ccccc3c1)CC2 [compound 542]
IC50 (kappa opioid receptor): 530 nM | IC50 (delta opioid receptor): > 10000 nM | IC50 (mu opioid receptor): 160 nM

Cc1cccc2cccc(CN3CCC4(CC3)C(=O)N(C[C@H](O)CNCCCNC(=O)OC(C)(C)C)CN4c3ccc(F)cc3)c12 [compound 665]
Ki (kappa opioid receptor): 290 nM | Ki (delta opioid receptor): > 5000 nM | Ki (mu opioid receptor): 2710 nM

CNCCCNC[C@H](O)CN1CN(c2ccccc2)C2(CCN([C@H]3CC[C@@H]4CCCc5cccc3c54)CC2)C1=O [compound 658]
Ki (kappa opioid receptor): 130 nM | Ki (delta opioid receptor): > 5000 nM | Ki (mu opioid receptor): 170 nM

Cc1cccc2cccc(CN3CCC4(CC3)C(=O)N(CC(O)CN3CCC(N(C)C(=O)OC(C)(C)C)C3)CN4c3ccc(F)cc3)c12 (stereo not shown) [compound 721]
Ki (kappa opioid receptor): 170 nM | Ki (delta opioid receptor): > 5000 nM | Ki (mu opioid receptor): 590 nM

COc1ccc(CCNC[C@H](O)CN2CN(c3ccc(F)cc3)C3(CCN(C4Cc5cccc6cccc4c56)CC3)C2=O)cc1OC (mixture of isomers) [compound 48]
IC50 (kappa opioid receptor): 170 nM | IC50 (delta opioid receptor): > 10000 nM | IC50 (mu opioid receptor): 540 nM

O=C1N(C[C@@H](O)CNCCc2c[nH]cn2)CN(c2ccc(F)cc2)C12CCN(CC1CCCCCCC1)CC2 [Compound #28]
IC50 (kappa opioid receptor): 180 nM | IC50 (delta opioid receptor): > 10000 nM | IC50 (mu opioid receptor): 410 nM

O=C1N(C[C@@H](O)CNCCN2CCOCC2)CN(c2ccc(F)cc2)C12CCN(CC1CCCCCCC1)CC2 [Compound #1]
IC50 (kappa opioid receptor): 130 nM | IC50 (delta opioid receptor): > 10000 nM | IC50 (mu opioid receptor): 620 nM

COc1ccc(CCNC[C@@H](O)CN2CN(c3ccc(F)cc3)C3(CCN(C4Cc5cccc6cccc4c56)CC3)C2=O)cc1OC (mixture of isomers) [compound 300]
IC50 (kappa opioid receptor): 130 nM | IC50 (delta opioid receptor): 4840 nM | IC50 (mu opioid receptor): 510 nM

COc1ccc(CCNC[C@H](O)CN2CN(c3ccc(F)cc3)C3(CCN(Cc4cccc5ccccc45)CC3)C2=O)cc1OC [compound 253]
IC50 (kappa opioid receptor): 400 nM | IC50 (delta opioid receptor): 2160 nM | IC50 (mu opioid receptor): 760 nM

O=C1N(C[C@@H](O)CNCc2cccc(Br)c2)CN(c2ccc(F)cc2)C12CCN(CC1CCCCCCC1)CC2 [compound 20]
IC50 (kappa opioid receptor): 440 nM | IC50 (delta opioid receptor): > 10000 nM | IC50 (mu opioid receptor): 1280 nM
